Target: T1, human vasopressin V1a receptor subtype (Homo sapiens, UniProt P37288)
T1 construct: host or cells: CHO cells (pZeoSV vector for the Thibonnier line)
Experiment: Vasopressin binding in Chinese Hamster Ovary cell membranes expressing human vasopressin V1a subtype receptors
Conditions: 100 nM, CHO cell membranes, [3H]Manning ligand, values without parentheses
In short: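 Displacement of [3H]Manning ligand (8 nM working solution) from human V1a receptors in CHO cell membranes, 25–50 μg protein per well. Incubation ran 60 min at room temperature in 50 mM Tris-HCl pH 7.4 with protease inhibitors, followed by filtration and scintillation counting. Results are given as IC50 or percent inhibition.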

T1 sequence (P37288 whole entry): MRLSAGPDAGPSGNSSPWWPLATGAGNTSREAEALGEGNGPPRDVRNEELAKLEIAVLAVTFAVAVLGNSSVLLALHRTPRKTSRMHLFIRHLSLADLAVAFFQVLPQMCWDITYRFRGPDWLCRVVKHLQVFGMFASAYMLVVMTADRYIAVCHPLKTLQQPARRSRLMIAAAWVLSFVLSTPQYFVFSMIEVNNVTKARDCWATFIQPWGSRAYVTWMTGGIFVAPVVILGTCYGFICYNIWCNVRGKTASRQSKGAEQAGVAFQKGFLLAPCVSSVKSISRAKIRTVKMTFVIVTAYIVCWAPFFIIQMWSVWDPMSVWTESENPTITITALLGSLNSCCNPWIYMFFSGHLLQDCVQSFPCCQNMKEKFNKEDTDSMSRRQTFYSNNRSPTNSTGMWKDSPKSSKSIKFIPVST

inhibition at 0.1 µM	SMILES
10%	Cc1cc(C(=O)N2Cc3ccc(C(=O)N4CCN(CCN5CCOCC5)CC4)n3Cc3ccccc32)ccc1-c1ccccc1C(F)(F)F [Example 216, (10-{[2-Methyl-2′-(trifluoromethyl)[1,1′-biphenyl]-4-yl]carbonyl}-10,11-dihydro-5H -pyrrolo[2,1-c][1,4]benzodiazepin-3-yl){4-[2-(4-morpholinyl)ethyl]-1-piperazinyl}methanone]
22%	C=CCN1CCN(C(=O)c2ccc3n2Cc2ccccc2N(C(=O)c2ccc(-c4cccc(OC)c4)c(OC)c2)C3)CC1 [Example 228, (4-Allyl-1-piperazinyl){10-[(2,3′-dimethoxy[1,1′-biphenyl]-4-yl)carbonyl]-10,11-dihydro-5H -pyrrolo[2,1-c][1,4]benzodiazepin-3-yl}methanone]
8%	C=CCN1CCN(C(=O)c2ccc3n2Cc2ccccc2N(C(=O)c2ccc(-c4cccc5ccccc45)cc2Cl)C3)CC1 [Example 229, (4-Allyl-1-piperazinyl){10-[2-chloro-4-(1-naphthyl)benzoyl]-10,11-dihydro-5H-pyrrolo[2,1-c][1,4]benzodiazepin-3-yl}methanone]
6%	O=C(NCCN1CCCCC1)c1ccc2n1Cc1ccccc1N(C(=O)c1ccc(-c3cccc4ccccc34)cc1Cl)C2 [Example 160, 10-[2-Chloro-4-(1-naphthyl)benzoyl]-N-[2-(1-piperidinyl)ethyl]-10,11-dihydro-5H-pyrrolo[2,1-c][1,4]benzodiazepine-3-carboxamide]
3%	C=CCN1CCN(C(=O)c2ccc3n2Cc2ccccc2N(C(=O)c2ccc(-c4ccccc4C(F)(F)F)c(C)c2)C3)CC1 [Example 230, (4-Allyl-1-piperazinyl)(10-{[2-methyl-2′-(trifluoromethyl)[1,1′-biphenyl]-4-yl]carbonyl}-10,11-dihydro-5H-pyrrolo[2,1-c][1,4]benzodiazepin-3-yl)methanone]
2%	COc1cccc(-c2cc(OC)c(C(=O)N3Cc4ccc(C(=O)N5CCN(CCN(C)C)CC5)n4Cc4ccccc43)cc2Cl)c1 [Example 202, {10-[(6-Chloro-3,3′-dimethoxy[1,1′-biphenyl]-4-yl)carbonyl]-10,11-dihydro-5H-pyrrolo[2,1-c][1,4]benzodiazepin-3-yl}{4-[2-(dimethylamino)ethyl]-1-piperazinyl}methanone]
50%	Cc1ccccc1-c1ccc(C(=O)N2Cc3ccc(C(=O)N4CCN(CCN(C)C)CC4)n3Cc3ccccc32)cc1C [Example 198, {4-[2-(Dimethylamino)ethyl]-1-piperazinyl}{10-[(2,2′-dimethyl[1,1′-biphenyl]-4-yl)carbonyl]-10,11-dihydro-5H-pyrrolo[2,1-c][1,4]benzodiazepin-3-yl}methanone]
15%	C=CCN1CCN(C(=O)c2ccc3n2Cc2ccccc2N(C(=O)c2ccc(-c4ccccc4OC)c(C)c2)C3)CC1 [Example 222, (4-Allyl-1-piperazinyl){10-[(2′-methoxy-2-methyl[1,1′-biphenyl]-4-yl)carbonyl]-10,11-dihydro-5H-pyrrolo[2,1-c][1,4]benzodiazepin-3-yl}methanone]
21%	COc1cc(-c2ccccc2C)c(Cl)cc1C(=O)N1Cc2ccc(C(=O)N3CCN(CCN4CCOCC4)CC3)n2Cc2ccccc21 [Example 217, {10-[(6-Chloro-3-methoxy-2′-methyl[1,1′-biphenyl]-4-yl)carbonyl]-10,11-dihydro-5H -pyrrolo[2,1-c][1,4]benzodiazepin-3-yl}{4-[2-(4-morpholinyl)ethyl]-1-piperazinyl}methanone]
9%	COc1cccc(-c2cc(OC)c(C(=O)N3Cc4ccc(C(=O)NCCC5CCCN5C)n4Cc4ccccc43)cc2Cl)c1 (stereo not shown) [Example 169, 10-[(6-Chloro-3,3′-dimethoxy[1,1′-biphenyl]-4-yl)carbonyl]-N-[2-(1-methyl-2-pyrrolidinyl)ethyl]-10,11-dihydro-5H-pyrrolo[2,1-c][1,4]benzodiazepine-3-carboxamide]
